Data from patent US20100152129A1 (priority 2008, published 2010).

Tested on: Panc-1 cell line
Assay: Gene expression profile using RTQ-PCR
Format: cell-based
Conditions: Panc1, RTQ-PCR
Description: The objective of the experiment was to evaluate the synergistic effect of drug combination (Gemcitabine with […]) as compared to individual use of the same. The synergistic effect of the compound or drug combination in the Panc-1 cell line was measured in terms of gene expression and expressed as fold changes as compared to the cell control with no drug treatment. Methodology: Cell lines treated with drugs (Gemcitabine, […] or both) were used for total RNA isolation using a commercial RNA extraction kit (Qiagen Corporation, Germany). […] This was followed by real time quantitative polymerase chain reaction (RTQ PCR) using gene specific primers and standard thermal program of initial denaturation at 95° C. for 5 mins and 40 cycles of 95° C. for 10 seconds, followed by […] for 30 seconds (Realplex PCR machine from Eppendorf, Germany). Quantitative measurement of products made during PCR cycles was normalized against a housekeeping gene (Actin) and used to measure the gene expression as fold changes as compared to respective control (FIG. 5).

| Compound | CDK2 gene expression vs control cells with no drug treatment | CDK4 gene expression vs control cells with no drug treatment | CDK6 gene expression vs control cells with no drug treatment | CDK8 gene expression vs control cells with no drug treatment | DDIT4 gene expression vs control cells with no drug treatment | RRM1 gene expression vs control cells with no drug treatment | RRM2 gene expression vs control cells with no drug treatment | p14 gene expression vs control cells with no drug treatment | p18 gene expression vs control cells with no drug treatment | p27 gene expression vs control cells with no drug treatment | further results |
| --- | --- | --- | --- | --- | --- | --- | --- | --- | --- | --- | --- |
| CC[C@H](CO)Nc1nc(NCc2ccccc2)c2ncn(C(C)C)c2n1 [drawing 11] | 0.29 log 2 fold ratio | −0.06 log 2 fold ratio | 0.75 log 2 fold ratio | 0.82 log 2 fold ratio | −0.84 log 2 fold ratio | 0.11 log 2 fold ratio | 0.63 log 2 fold ratio | −0.05 log 2 fold ratio | 0.56 log 2 fold ratio | −0.04 log 2 fold ratio |  |
| CN1CC[C@@H](c2c(O)cc(O)c3c(=O)cc(-c4ccccc4Cl)oc23)[C@@H]1CO.Cl | −0.21 log 2 fold ratio | −0.44 log 2 fold ratio | −0.23 log 2 fold ratio | 0.11 log 2 fold ratio | −1.88 log 2 fold ratio | 0.18 log 2 fold ratio | 0.16 log 2 fold ratio | −0.50 log 2 fold ratio | −0.17 log 2 fold ratio | −0.60 log 2 fold ratio |  |
| Nc1ccn([C@@H]2O[C@H](CO)[C@@H](O)C2(F)F)c(=O)n1 [drawing 1] |  |  |  |  |  |  |  |  |  |  | DLG5 gene expression vs control cells with no drug treatment: −0.53 log 2 fold ratio; E2F1 gene expression vs control cells with no drug treatment: 0.98 log 2 fold ratio; MAPK1 gene expression vs control cells with no drug treatment: −0.18 log 2 fold ratio; PDCD2 gene expression vs control cells with no drug treatment: −1.27 log 2 fold ratio; POLB gene expression vs control cells with no drug treatment: −0.94 log 2 fold ratio; PTK7 gene expression vs control cells with no drug treatment: −0.53 log 2 fold ratio; PTN gene expression vs control cells with no drug treatment: 0.68 log 2 fold ratio; RASA1 gene expression vs control cells with no drug treatment: −0.04 log 2 fold ratio; REV3L gene expression vs control cells with no drug treatment: −0.28 log 2 fold ratio; SSTR2 gene expression vs control cells with no drug treatment: −1.17 log 2 fold ratio; STAT4 gene expression vs control cells with no drug treatment: −0.54 log 2 fold ratio |
| CN1CCC(c2c(O)cc(O)c3c(=O)cc(-c4ccccc4Cl)oc23)C(O)C1 (centres unmarked) [drawing 14] | 0.74 log 2 fold ratio | 0.49 log 2 fold ratio | 1.31 log 2 fold ratio | −0.99 log 2 fold ratio | −4.21 log 2 fold ratio | 0.03 log 2 fold ratio | 0.38 log 2 fold ratio | −0.10 log 2 fold ratio | −1.14 log 2 fold ratio | −0.01 log 2 fold ratio |  |
| Nc1ccn([C@@H]2O[C@H](CO)[C@@H](O)C2(F)F)c(=O)n1 [drawing 10] | 0.50 log 2 fold ratio | −0.93 log 2 fold ratio | −0.53 log 2 fold ratio | 0.86 log 2 fold ratio | 1.01 log 2 fold ratio | 0.25 log 2 fold ratio |  | −0.17 log 2 fold ratio | 1.06 log 2 fold ratio | −0.16 log 2 fold ratio |  |
